Read-outs that look alike come from different tables or passages of the source.
How the values were obtained:
[1] = test system: panel of twelve human tumor cell lines; assay: Hollow fiber assay; format: in vivo; design: key to IP Score / SC score / Total score: 2 points each time viable cell mass falls ≥50% vs vehicle controls; key to Cell kill: A net cell kill at one or more implant sites is indicated with a Y; settings: for IP Score: intraperitoneal fibers in athymic nude mice, score 2 per 50% or greater reduction in viable cell mass; for IP Score / SC score: compounds IP once daily, four doses, two dose levels; for SC score: subcutaneous fibers in athymic nude mice; for Total score: sum of IP and SC scores; for Cell kill: net cell kill at one or more implant sites
Experimental: Hollow Fiber Activity. […] The effects of the compounds on the reduction of viable cancer cell mass compared to those of controls were determined. Each compound was tested in the hollow fiber assay against a panel of twelve human tumor cell lines as described previously; see, Hollingshead, M.; Plowman, J.; Alley, M.; Mayo, J.; Sausville, E., The Hollow Fiber Assay. Contrib. Oncol. 1999, 54, 109-120; and Plowman, J.; Camalier, R.; Alley, M.; Sausville, E.; Schepartz, S. Contrib. Oncol. […] The compounds were solubilized in 10% DMSO in saline/Tween-80® and administered intraperitoneally once daily for a total of four doses at each of two dose levels. The two doses were selected based on single dose toxicity studies for each derivative. A score of 2 was assigned each time the compound produced a 50% or greater reduction in viable cell mass compared to vehicle-treated controls. The score for each compound was summed for the intraperitoneal fibers and the subcutaneous fibers to provide the total score for each derivative as shown in Table 3 and Table 4. For comparative purposes, the score for the clinically used anticancer drug paclitaxel is provided.

[2] = test system: all human cancer cell lines successfully tested; assay: NCI screen mean graph midpoint (MGM) for growth inhibition; format: cell-based
In short: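 NCI60 panel cells exposed to compound at 100, 10, 1, 0.1 and 0.01 μM for 48 h, then sulforhodamine B staining. Percentage growth versus control plotted against log concentration; MGM is the midpoint across all lines tested.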

breast MDA-MB-435 = assay: COMPARE screening (NCI human cancer cell line screen), cytotoxicity GI50; format: cell-based
ovarian OVCAR-3 = assay: as above; format: cell-based
In short: (§1)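 Cells of the NCI60 panel were exposed to compound at 100, 10, 1, 0.1 and 0.01 μM for 48 h, then stained with sulforhodamine B. Optical density relative to control was plotted as percentage growth versus log10 concentration.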

renal SN12C = assay: as above; format: cell-based
In short: as §1

lung HOP-62 = assay: as above; format: cell-based
In short: as §1

prostate DU-145 = assay: as above; format: cell-based
In short: as §1

melanoma UACC-62 = assay: as above; format: cell-based
In short: as §1

colon HCT-116 = assay: as above; format: cell-based
In short: as §1

CNS SF-539 = assay: as above; format: cell-based
In short: as §1

[3] = all human cancer cell lines successfully tested
[4] = Table 1, average GI50 of all cell lines tested (approximately 55), test range 10^−8 to 10^−4 molar
[5] = Table 1, concentration corresponding to 50% growth inhibition, read-out: cytotoxicity (GI50) ovarian OVCAR-3
[6] = breast MDA-MB-435, concentration corresponding to 50% growth inhibition, read-out: cytotoxicity (GI50 in μM) breast MDA-MB-435
[7] = ovarian OVCAR-3, concentration corresponding to 50% growth inhibition, read-out: cytotoxicity (GI50 in μM) ovarian OVCAR-3
[8] = renal SN12C, concentration corresponding to 50% growth inhibition, read-out: cytotoxicity (GI50 in μM) renal SN12C
[9] = lung HOP-62, concentration corresponding to 50% growth inhibition, read-out: cytotoxicity (GI50 in μM) lung HOP-62
[10] = melanoma UACC-62, concentration corresponding to 50% growth inhibition, read-out: cytotoxicity (GI50 in μM) melanoma UACC-62
[11] = colon HCT-116, concentration corresponding to 50% growth inhibition, read-out: cytotoxicity (GI50 in μM) colon HCT-116
[12] = CNS SF-539, concentration corresponding to 50% growth inhibition, read-out: cytotoxicity (GI50 in μM) CNS SF-539

SMILES | IP Score ([1]; Table 4) | SC score ([1]; Table 4) | Total score ([1]; Table 4) | MGM (mean graph midpoint for growth inhibition) [2, 3] [µM] | GI50 (breast MDA-MB-435) [µM] | GI50 (ovarian OVCAR-3) [µM] | GI50 (renal SN12C) [µM] | GI50 (lung HOP-62) [µM] | GI50 (prostate DU-145) [µM] | GI50 (melanoma UACC-62) [µM] | GI50 (colon HCT-116) [µM] | GI50 (CNS SF-539) [µM] | IP Score ([1]; Table 3) | SC score ([1]; Table 3) | Total score ([1]; Table 3) | MGM (mean graph midpoint for growth inhibition) [2, 4] [µM] | GI50 (ovarian OVCAR-3; [5]) [µM] | also measured
O=C(O)C(F)(F)F.O=C(O)C(F)(F)F.O=C(O)C(F)(F)F.O=C1c2ccccc2-c2c1c1ccccc1c(=O)n2CCNCCNCCNCCn1c2c(c3ccccc3c1=O)C(=O)c1ccccc1-2 [Compound 14i, Bis{(5,6-dihydro-5,11-diketo-11H-indeno[1,2-c]isoquinoline)-6-ethylamino-ethyl}amine Tris(trifluoroacetate)] | 10 | 6 | 16 | 0.474 ± 0.143 | 1 | 1.15 | 0.017 | 0.048 | 0.331 | 0.269 | 0.112 | 0.275 | – | – | – | – | – | –
O=C(O)C(F)(F)F.O=C(O)C(F)(F)F.O=C1c2ccccc2-c2c1c1ccccc1c(=O)n2CCCNCCCCNCCCn1c2c(c3ccccc3c1=O)C(=O)c1ccccc1-2 [Compound 14h, Bis-1,4-{(5,6-dihydro-5,11-diketo-11H-indeno[1,2-c]isoquinoline)-6-propylamino}butane Bis(trifluoroacetate)] | 12 | 4 | 16 | 0.225 ± 0.084 | 0.676 | 0.135 | < 0.005 | 0.525 | 0.234 | 0.562 | < 0.005 | 0.251 | – | – | – | – | – | –
COc1cc2c3c(n(CCCN4CCCC(O)C4)c(=O)c2cc1OC)-c1cc2c(cc1C3=O)OCO2.Cl (stereo not shown) [Compound 5s, 6-[3-(3-Hydroxypiperidinyl)-1-propyl]-5,6-dihydro-2,3-dimethoxy-8,9-methylenedioxy-5,11-dioxo-11H-indeno[1,2-c]isoquinoline Hydrochloride] | – | – | – | – | 0.977 | – | 0.126 | < 0.005 | < 0.005 | 5.01 | < 0.005 | < 0.005 | 6 | 0 | 6 | 0.243 ± 0.088 | 5.75 | –
COc1cc2c3c(n(CCCN4CCCNCC4)c(=O)c2cc1OC)-c1cc2c(cc1C3=O)OCO2.Cl.Cl [Compound 5v, 6-(3-Homopiperazinyl-1-propyl)-5,6-dihydro-2,3-dimethoxy-8,9-methylenedioxy-5,11-dioxo-11H-indeno[1,2-c]isoquinoline Dihydrochloride] | – | – | – | – | 2.63 | – | 0.145 | < 0.005 | 0.081 | 0.457 | 0.214 | 0.145 | 12 | 2 | 14 | 0.715 ± 0.335 | 5.01 | –
CC(=O)O[C@H]1C(=O)[C@@]2(C)[C@H]([C@H](OC(=O)c3ccccc3)[C@]3(O)C[C@H](OC(=O)[C@H](O)[C@@H](NC(=O)c4ccccc4)c4ccccc4)C(C)=C1C3(C)C)[C@]1(OC(C)=O)CO[C@@H]1C[C@@H]2O [Paclitaxel, paclitaxel, reference compound] | 24 | 8 | 32 | – | – | – | – | – | – | – | – | – | 24 | 8 | 32 | – | – | Cell kill ([1]; Table 3): Y; Cell kill ([1]; Table 4): Y
COc1cc2c3c(n(CCCN4CCN(CCO)CC4)c(=O)c2cc1OC)-c1cc2c(cc1C3=O)OCO2 [Compound 5w, 3-[(1-Hydroxyethyl-piperazine)-1-propyl]-5,6-dihydro-2,3-dimethoxy-8,9-methylenedioxy-5,11-dioxo-11H-indeno[1,2-c]isoquinoline] | – | – | – | – | > 100 | 15.1 | > 100 | 9.77 | 0.275 | 1.23 | 2.34 | 1.44 | 8 | 0 | 8 | 7.86 ± 0.27 | – | –
COc1cc2c3c(n(CCCN4CCNCC4)c(=O)c2cc1OC)-c1cc2c(cc1C3=O)OCO2.Cl.Cl [Compound 5p, 6-(3-Piperazinyl-1-propyl)-5,6-dihydro-2,3-dimethoxy-8,9-methylenedioxy-5,11-dioxo-11H-indeno[1,2-c]isoquinoline Dihydrochloride] | – | – | – | – | 4.57 | – | 0.091 | < 0.005 | 0.015 | 1.2 | 0.575 | < 0.005 | 16 | 2 | 18 | 0.382 ± 0.119 | 2.04 | –
O=C(O)C(F)(F)F.O=C(O)C(F)(F)F.O=C1c2ccccc2-c2c1c1ccccc1c(=O)n2CCNCCCNCCn1c2c(c3ccccc3c1=O)C(=O)c1ccccc1-2 [Compound 14d, Bis-1,3-{(5,6-dihydro-5,11-diketo-11H-indeno[1,2-c]isoquinoline)-6-ethylamino}propane Bis(trifluoroacetate)] | 2 | 4 | 6 | 0.122 ± 0.064 | – | – | – | – | – | – | – | – | – | – | – | – | – | GI50 (breast MDA-MB-435; [6]): 0.024 µM; GI50 (ovarian OVCAR-3; [7]): 0.093 µM; GI50 (renal SN12C; [8]): < 0.005 µM; GI50 (lung HOP-62; [9]): 0.339 µM; GI50 (prostate DU-145; prostate DU-145, concentration corresponding to 50% growth inhibition, read-out: cytotoxicity (GI50 in μM) prostate DU-145): 0.079 µM; GI50 (melanoma UACC-62; [10]): 0.182 µM; GI50 (colon HCT-116; [11]): < 0.005 µM; GI50 (CNS SF-539; [12]): 0.155 µM
O=C(O)C(F)(F)F.O=C(O)C(F)(F)F.O=C1c2ccccc2-c2c1c1ccccc1c(=O)n2CCCNCCCNCCCn1c2c(c3ccccc3c1=O)C(=O)c1ccccc1-2 [Compound 14g, Bis-1,3-{(5,6-dihydro-5,11-diketo-11H-indeno[1,2-c]isoquinoline)-6-propylamino}propane Bis(trifluoroacetate)] | 26 | 6 | 32 | 0.394 ± 0.33 | – | – | – | – | – | – | – | – | – | – | – | – | – | GI50 (breast MDA-MB-435; [6]): 0.107 µM; GI50 (ovarian OVCAR-3; [7]): 0.074 µM; GI50 (renal SN12C; [8]): < 0.01 µM; GI50 (lung HOP-62; [9]): < 0.01 µM; GI50 (melanoma UACC-62; [10]): 0.042 µM; GI50 (colon HCT-116; [11]): < 0.01 µM; GI50 (CNS SF-539; [12]): 0.011 µM
